Experimental data from patent US11933780B2, “System and method for assessing an effect on cellular units in an organism” (Functional Fluidics Inc., priority 2022, dated 2024).

Tested on: erythrocytes
Assay: percentage of sickling of erythrocytes over time during deoxygenation by the PCA/PCD system
Format: cell-based
Source text: FIG. 5 is a graph illustrating a percentage of sickled erythrocytes over time for one sample that is exposed to a drug and one that is not.
Referring again to FIG. 3, the method may continue with the step 60 of deoxygenating the supporting medium in the aliquot of sample A and, in certain embodiments, the supporting medium in the aliquot of sample B to induce at least one of a predetermined amount of hypoxia and a predetermined rate of oxygen consumption in each of the supporting mediums. Deoxygenation of the supporting mediums in the aliquots of samples A and B may occur at the same or different times. Deoxygenation may be performed through enzymatic catalysis using enzymatic oxygen scavengers/scrubbers such as glucose oxidase or pyranose oxidase. In a preferred embodiment, deoxygenation is performed through enzymatic catalysis using a reaction substrate comprising protocatechuic acid (PCA) and a reaction enzyme comprising […] (PCD). PCD catalyzes the conversion of PCA and oxygen in the supporting medium in a 1:1 stoichiometry into β-carboxy-cis, cis-muconic acid (CMA). The use of PCA/PCD has a number of advantages relative to other enzymatic catalysis methods and other methods of deoxygenation. […] The use of PCA/PCD can achieve greater levels of hypoxia in the samples relative to some other methods. The use of PCA/PCD can also achieve specific levels of hypoxia as opposed to proceeding to complete hypoxia as in other methods thereby allowing simulation of more specific conditions (e.g., for a particular organ or particular level of hypoxia). Most importantly, the use of PCA/PCD allows accurate control of the rate of oxygen consumption in both the supporting medium and, as a result, the rate of deoxygenation of Hb in embodiments where the cellular unit comprises erythrocytes or extracellular Hb. Conventional methods of deoxygenation assume equilibrium or quasi-equilibrium conditions in which, for example, the rate of Hb deoxygenation occurs […] than the rate of oxygen consumption in the supporting medium. […]

[1] = FIG. 5, curve 76 vs curve 78, PCA/PCD deoxygenation at the same rate of oxygen consumption

For `CC(C)n1nccc1-c1ncccc1COc1cccc(O)c1C=O` [voxelotor], the “percentage of sickling of erythrocytes over time” value (FIG. 5, curve 76 (voxelotor) vs curve 78, same erythrocyte-containing sample deoxygenated by PCA/PCD at the same rate of oxygen consumption) was “reduction in sickling”, the delay in sickling [1] was “longer delay in sickling” and the erythrocyte sickling rate [1] was “slower erythrocyte sickling rate”.
